Source: patent US8871680B2, “Herbicidal compositions comprising 4-amino-3-chloro-5-fluoro-6-(4-chloro-2-fluoro-3-methoxyphenyl) pyridine-2-carboxylic acid or a derivative thereof and a di-methoxy-pyrimidine and derivatives thereof” (Dow AgroSciences LLC, priority 2012, dated 2014)

Legend:
[1] = system: CYPRO; experiment: In-water applied weed control, transplanted paddy rice (greenhouse); type: in vivo, Cyperus rotundus L.
Procedure: (§1) Weed seeds or nutlets of the desired test plant species were planted in puddled soil (mud) prepared by mixing a shredded, non-sterilized mineral soil (50.5 percent silt, 25.5 percent clay, and 24 percent sand, with a pH of about 7.6 and an organic matter content of about 2.9 percent) and water at a 1:1 volumetric ratio. The prepared mud was dispensed in 365 mL aliquots into 16-ounce (oz.) non-perforated plastic pots with a surface area of 86.59 square centimeters (cm^2) leaving a headspace of 3 centimeters (cm) in each pot. Mud was allowed to dry overnight prior to planting or transplanting. Rice seeds were planted in Sun Gro MetroMix® 306 planting mixture, which typically has a pH of 6.0 to 6.8 and an organic matter content of about 30 percent, in plastic plug trays. Seedlings at the second or third leaf stage of growth were transplanted into 860 mL of mud contained in 32-oz. non-perforated plastic pots with a surface area of 86.59 cm^2 4 days prior to herbicide application. The paddy was created by filling the headspace of the pots with 2.5 to 3 cm of water. When required to ensure good germination and healthy plants, a fungicide treatment and/or other chemical or physical treatment was applied. The plants were grown for 4-22 days in a greenhouse with an approximate 14 hr photoperiod which was maintained at about 29′C during the day and 26° C. during the night. Nutrients were added as Osmocote® (19:6:12, N:P:K+minor nutrients) at 2 g per 16-oz. pot and 4 g per 32-oz. pot. Water was added on a regular basis to maintain the paddy flood, and supplemental lighting was provided with overhead metal halide 1000-Watt lamps as necessary. The plants were employed for testing when they reached the first through fourth true leaf stage.
(§2) Treatments consisted of the acid or esters of 4-amino-3-chloro-5-fluoro-6-(4-chloro-2-fluoro-3-methoxy-phenyl)pyridine-2-carboxylic acid (compound A) each formulated as an SC and various herbicidal components alone and in combination. Forms of compound A were applied on an acid equivalent basis.
(§3) Other herbicidal components were applied on an active ingredient basis and included the dimethoxy-pyrimidine acid acetolactate synthase (ALS)-inhibiting herbicides bispyribac-sodium formulated as Regiment® 80 WP, pyriminobac-methyl formulated as Hie Clean®, and pyriftalid (technical grade material).
(§4) Treatment requirements for each compound or herbicidal component were calculated based upon the rates being tested, the concentration of active ingredient or acid equivalent in the formulation, an application volume of 2 mL per component per pot, and an application area of 86.59 cm^2 per pot.
(§5) For formulated compounds, a measured amount was placed in an individual 100 or 200 mL glass vial and was dissolved in a volume of 1.25% (v/v) Agri-Dex® crop oil concentrate to obtain application solutions.
(§6) For technical grade compounds, a weighed amount was placed in an individual 100 to 200 mL glass vial and was dissolved in a volume of acetone to obtain concentrated stock solutions. […] The concentrated stock solutions obtained were diluted with an equivalent volume of an aqueous mixture containing 2.5% (v/v) crop oil concentrate so that the final application solutions contained 1.25% (v/v) crop oil concentrate.
(§7) Applications were made by injecting with a pipetter appropriate amounts of the application solutions, individually and sequentially, into the aqueous layer of the paddy.
(§8) Control plants were treated in the same manner with the solvent blank. Applications were made so that all treated plant material received the same concentrations of acetone and crop oil concentrate.
(§9) The treated plants and control plants were placed in a greenhouse as described above and water was added as needed to maintain a paddy flood. […]

[2] = system: LEFCH; experiment: as above; type: in vivo, Leptochloa chinensis (L.) Nees; settings: 40 gai/ha
Procedure: as §1, §2, §3, §4, §5, §6, §7
(§10) Control plants were treated in the same manner with the solvent blank. […]

[3] = system: SCPMA; experiment: as above; type: in vivo, Bolboschoenus maritimus (L.) Palla
Procedure: as §1, §2, §3, §4, §5, §6, §7, §8, §9

[4] = system: ECHOR; experiment: as above; type: in vivo, Echinochloa oryzoides (Ard.) Fritsch
Procedure: as §1, §2, §3, §4, §5, §6, §7, §10

[5] = system: ECHCG; experiment: as above; type: in vivo, Echinochloa crusgalli (L.) Beauv.
Procedure: as §1, §2, §3, §4, §5, §6, §7, §8, §9

[6] = system: LEFCH; experiment: Postemergence foliar-applied weed control, direct seeded rice (greenhouse); type: in vivo, Leptochloa chinensis (L.) Nees
Description: (§11) Seeds or nutlets of the desired test plant species were planted in a soil matrix prepared by mixing a loam or sandy loam soil (e.g., 28.6 percent silt, 18.8 percent clay, and 52.6 percent sand, with a pH of about 5.8 and an organic matter content of about 1.8 percent) and calcareous grit in an 80 to 20 ratio. The soil matrix was contained in plastic pots with a volume of 1 quart and a surface area of 83.6 square centimeters (cm^2). When required to ensure good germination and healthy plants, a fungicide treatment and/or other chemical or physical treatment was applied. The plants were grown for 8-22 days in a greenhouse with an approximate 14 hr photoperiod which was maintained at about 29° C. during the day and 26° C. during the night. Nutrients (Peters Excel® 15-5-15 5-Ca 2-Mg and iron chelate) were applied in the irrigation solution as needed and water was added on a regular basis. Supplemental lighting was provided with overhead metal halide 1000-Watt lamps as necessary. The plants were employed for testing when they reached the first through fourth true leaf stage.
as §2, with “(Compound A),” for “(compound A)”, “SC (suspension concentrate),” for “SC”
as §3, with “80WP, pyribenzoxim (technical grade material),” for “80 WP,”, “Hie-Clean® 1.2% GR dissolved in water,” for “Hie Clean®,”
(§12) Treatment requirements were calculated based upon the rates being tested, the concentration of active ingredient or acid equivalent in the formulation, and a 12 mL application volume at a rate of 187 L/ha.
(§13) For treatments comprised of formulated compounds, measured amounts of compounds were placed individually in 25 mL glass vials and diluted in a volume of 1.25% (v/v) Agri-Dex® crop oil concentrated to obtain 12× stock solutions. […] Application solutions were prepared by adding an appropriate amount of each stock solution (e.g., 1 mL) and diluted to the appropriate final concentrations with the addition of 10 mL of an aqueous mixture of 1.25% (v/v) crop oil concentrate so that the final spray solutions contained 1.25+/−0.005% (v/v) crop oil concentrate.
(§14) For treatments comprised of technical compounds, weighed amounts can be placed individually in 25 mL glass vials and dissolved in a volume of 97:3 v/v acetone/DMSO to obtain 12× stock solutions. […] Application solutions can be prepared by adding an appropriate amount of each stock solution (e.g., 1 mL) and diluted to the appropriate final concentrations with the addition of 10 mL of an aqueous mixture of 1.5% (v/v) crop oil concentrate so that the final spray solutions contain 1.25% (v/v) crop oil concentrate. When technical materials are used, the concentrated stock solutions can be added to the spray solutions so that the final acetone and DMSO concentrations of the application solutions are 16.2% and 0.5%, respectively.
(§15) For treatments comprised of formulated and technical compounds, weighed amounts of the technical materials were placed individually in 25 mL glass vials and dissolved in a volume of 97:3 v/v acetone/DMSO to obtain 12× stock solutions, and measured amounts of the formulated compounds were placed individually in 25 mL glass vials and diluted in a volume of 1.5% (v/v) crop oil concentrate or water to obtain 12× stock solutions. […]

[7] = system: FIMMI; experiment: In-water applied weed control, transplanted paddy rice (greenhouse); type: in vivo, Fimbristylis miliacea (L.) Vahl; settings: 4.38 gae/ha
Procedure: as §1, §2, §3, §4, §5, §6, §7, §8, §9

[8] = system: IPOHE; experiment: Postemergence foliar-applied weed control, direct seeded rice (greenhouse); type: in vivo, Ipomoea hederacea Jacq.
Description: as §11
as §2, with “(Compound A),” for “(compound A)”, “SC (suspension concentrate),” for “SC”
as §3, with “80WP, pyribenzoxim (technical grade material),” for “80 WP,”, “Hie-Clean® 1.2% GR dissolved in water,” for “Hie Clean®,”
as §12, §13, §14, §15

[9] = system: ECHCG; experiment: as above; type: in vivo, Echinochloa crusgalli (L.) Beauv.
Description: as §11, with “stage. […]” for “stage.”
as §12
For treatments comprised of formulated compounds, measured amounts of compounds were placed individually in 25 mL glass vials and diluted in a volume of 1.25% (v/v) Agri-Dex® crop oil concentrated to obtain 12× stock solutions. […]
as §15

COc1cc(OC)nc(Oc2cccc(Oc3nc(OC)cc(OC)n3)c2C(=O)[O-])n1.[Na+] [Bispyribac-Sodium, sodium 2,6-bis[(4,6-dimethoxy-2-pyrimidinyl)oxy]benzoate, reference compound]
Visual Weed Control (%)-20 DAA CYPRO Obs ([1]; 10 gai/ha): 0% | Visual Weed Control (%)-20 DAA CYPRO Obs ([1]; 20 gai/ha): 0% | Visual Weed Control (%)-20 DAA LEFCH Obs [2]: 28% | Visual Weed Control (%)-20 DAA SCPMA Obs ([3]; 40 gai/ha, Table 7): 38% | Visual Weed Control (%)-20 DAA SCPMA Obs ([3]; 40 gai/ha, Table 8): 38% | Visual Weed Control (%)-20 DAA SCPMA Obs ([3]; 40 gai/ha, Table 9): 38% | Visual Weed Control (%)-20 DAA ECHOR Obs ([4]; 40 gai/ha, Table 7): 30% | Visual Weed Control (%)-20 DAA ECHOR Obs ([4]; 40 gai/ha, Table 9): 30% | Visual Weed Control (%) - 20 DAA ECHCG Obs ([5]; 10 gai/ha): 20% | Visual Weed Control (%) - 20 DAA ECHCG Obs ([5]; 20 gai/ha): 35% | Visual Weed Control (%) - 20 DAA ECHCG Obs ([5]; 40 gai/ha): 30% | Visual Weed Control (%)-20 DAA LEFCH Obs ([6]; 7 gai/ha): 0% | Visual Weed Control (%)-20 DAA LEFCH Obs ([6]; 14 gai/ha): 0%

COc1c(Cl)ccc(-c2nc(C(=O)OCc3ccccc3)c(Cl)c(N)c2F)c1F [Compound A Benzyl Ester]
Visual Weed Control (%)-21 DAA FIMMI Obs [7]: 20% | Visual Weed Control (%)-20 DAA CYPRO Obs ([1]; 4.38 gae/ha): 50% | Visual Weed Control (%)-21 DAA CYPRO Obs ([1]; 4.38 gae/ha, Table 11): 0% | Visual Weed Control (%)-21 DAA CYPRO Obs ([1]; 4.38 gae/ha, Table 13): 30% | Visual Weed Control (%)-21 DAA CYPRO Obs ([1]; 8.75 gae/ha, Table 11): 20% | Visual Weed Control (%)-21 DAA CYPRO Obs ([1]; 8.75 gae/ha, Table 13): 60% | Visual Weed Control (%)-21 DAA CYPRO Obs ([1]; 17.5 gae/ha): 10% | Visual Weed Control (%)-24 DAA IPOHE Obs ([8]; 4.38 gae/ha): 10% | Visual Weed Control (%)-24 DAA IPOHE Obs ([8]; 8.75 gae/ha): 15% | Visual Weed Control (%)-21 DAA IPOHE Obs ([8]; 17.5 gae/ha): 43% | Visual Weed Control (%)-24 DAA IPOHE Obs ([8]; 17.5 gae/ha): 30% | Visual Weed Control (%)-21 DAA SCPMA Obs ([3]; 4.38 gae/ha): 0% | Visual Weed Control (%)-21 DAA SCPMA Obs ([3]; 8.75 gae/ha): 0% | Visual Weed Control (%)-20 DAA SCPMA Obs ([3]; 35 gae/ha): 0% | Visual Weed Control (%)-20 DAA SCPMA Obs ([3]; 35 gae/ha, Table 11): 0% | Visual Weed Control (%)-20 DAA SCPMA Obs ([3]; 70 gae/ha): 0% | Visual Weed Control (%) - 20 DAA ECHCG Obs ([9]; 8 gae/ha): 75% | Visual Weed Control (%) - 20 DAA ECHCG Obs ([9]; 16 gae/ha): 85% | Visual Weed Control (%)-24 DAA LEFCH Obs ([6]; 4.38 gae/ha): 0% | Visual Weed Control (%)-20 DAA LEFCH Obs ([6]; 8.75 gae/ha): 10% | Visual Weed Control (%)-24 DAA LEFCH Obs ([6]; 8.75 gae/ha): 0% | Visual Weed Control (%)-20 DAA LEFCH Obs ([6]; 17.5 gae/ha): 20% | Visual Weed Control (%)-22 DAA LEFCH Obs ([6]; 17.5 gae/ha): 25% | Visual Weed Control (%)-24 DAA LEFCH Obs ([6]; 17.5 gae/ha): 10%

CCCCOC(=O)c1nc(-c2ccc(Cl)c(OC)c2F)c(F)c(N)c1Cl [Compound A n-Butyl Ester]
Visual Weed Control (%)-20 DAA SCPMA Obs ([3]; 70 gae/ha): 0% | Visual Weed Control (%)-20 DAA ECHOR Obs ([4]; 35 gae/ha): 35% | Visual Weed Control (%)-20 DAA ECHOR Obs ([4]; 70 gae/ha): 40%
